Experimental data reported in the supplement of paper PMC7600603.

Assays:
DLD1 NRF2-GOF [1] = test: TC50 cytotoxicity; higher = less toxic; conditions: 72 h; CellTox Green cytotoxicity
Summary of the method: (§1)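 In 384-well plates, isogenic DLD1 cells with NRF2 wild-type or CRISPR-edited status, grown in DMEM with 10% FBS, received library compounds at 5 concentrations spanning a 10,000-fold range. At 72 h, CellTox Green signals were read on a Pherastar FS reader and scaled between vehicle wells and 100-μM positive-control wells. Cytotoxicity endpoints, TC50 and a drug sensitivity score based on normalised area under the curve, came from logistic dose-response fits.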

DLD1 NRF2-WT [2] = test: TC50 cytotoxicity; higher = less toxic; conditions: 72 h; CellTox Green cytotoxicity
Summary of the method: as §1

DLD1 NRF2-GOF [3] = conditions: 72 h; CellTiter-Glo viability
Summary of the method: (§2)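 In 384-well plates, library compounds were applied at 5 concentrations spanning a 10,000-fold range to isogenic DLD1 colorectal cancer cells, NRF2 wild-type or CRISPR gain-of-function, maintained in DMEM with 10% FBS. A Pherastar FS reader recorded CellTiter-Glo signal at 72 h, with normalisation to vehicle wells and 100-μM positive-control wells. Curves were fitted with a four-parameter logistic model. EC50 and drug sensitivity score, a normalised area under the curve, came from those curves.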

DLD1 NRF2-WT [4] = conditions: 72 h; CellTiter-Glo viability
Summary of the method: as §2

DLD1 NRF2-GOF [5] = test: drug sensitivity score (DSS) viability (DSS score); higher = more sensitive; extreme values may be limits of the assay; conditions: 72 h; CellTiter-Glo viability
Summary of the method: as §2

DLD1 NRF2-WT [6] = test: as above; conditions: 72 h; CellTiter-Glo viability
Summary of the method: as §2

DLD1 NRF2-GOF [7] = test: drug sensitivity score (DSS) cytotoxicity (DSS score); higher = more toxic; extreme values may be limits of the assay; conditions: 72 h; CellTox Green cytotoxicity
Summary of the method: as §1

DLD1 NRF2-WT [8] = test: as above; conditions: 72 h; CellTox Green cytotoxicity
Summary of the method: as §1

Structure (SMILES) | EC50 viability (DLD1 NRF2-GOF [3]) [µM] | EC50 viability (DLD1 NRF2-WT [4]) [µM] | TC50 cytotoxicity (DLD1 NRF2-GOF [1]) [µM] | TC50 cytotoxicity (DLD1 NRF2-WT [2]) [µM] | drug sensitivity score (DLD1 NRF2-GOF [5]) | drug sensitivity score (DLD1 NRF2-WT [6]) | drug sensitivity score (DLD1 NRF2-GOF [7]) | drug sensitivity score (DLD1 NRF2-WT [8])
CCC/C=C/C=C/C(=O)O[C@H]1/C(=C/C(=O)OC)C[C@H]2C[C@H]([C@@H](C)O)OC(=O)C[C@H](O)C[C@@H]3C[C@H](OC(C)=O)C(C)(C)[C@](O)(C[C@@H]4C/C(=C/C(=O)OC)C[C@H](/C=C/C(C)(C)[C@]1(O)O2)O4)O3 [Bryostatin 1] | > 0.1 | > 0.1 | > 0.1 | > 0.1 | 2.8 | 0.2 | 0 | 0
Cc1nc(=O)c2cc(CN(C)c3ccc(C(=O)N[C@@H](CCC(=O)O)C(=O)O)s3)ccc2[nH]1 [Raltitrexed] | 0.0083 | 0.0147 | > 1 | > 1 | 18 | 16 | 0 | 0
COCC[n+]1c2c(n(Cc3cnccn3)c1C)C(=O)c1ccccc1C2=O [Sepantronium bromide] | 0.0037 | 0.0068 | 0.0275 | 0.0287 | 41.8 | 38.7 | 30.9 | 21.7
CNC(=O)c1cc(Oc2ccc(NC(=O)Nc3ccc(Cl)c(C(F)(F)F)c3)c(F)c2)ccn1 [Regorafenib] | 3.71 | 3.3 | > 10 | > 10 | 2.4 | 3.8 | 0 | 0
CC(C)[C@H](C(=O)Nc1ccc(C(=O)NO)cc1)c1ccccc1 [AR-42] | 1.73 | 1.26 | > 10 | 1.97 | 5.7 | 9.4 | 0 | 4
C[C@H]1O[C@@H](O[C@H]2[C@@H](O)C[C@H](O[C@H]3[C@@H](O)C[C@H](O[C@H]4CC[C@@]5(C)[C@H](CC[C@@H]6[C@@H]5C[C@@H](O)[C@]5(C)[C@@H](C7=CC(=O)OC7)CC[C@]65O)C4)O[C@@H]3C)O[C@@H]2C)C[C@H](O)[C@@H]1O [Digoxin] | 0.0245 | 0.0473 | 0.217 | 0.327 | 18.8 | 15.8 | 4.6 | 4.3
Cc1ccc(=O)n(-c2ccccc2)c1 [Pirfenidone] | > 10 | > 10 | > 10 | > 10 | 0 | 0 | 0 | 0
CCNC(=O)c1noc(-c2cc(C(C)C)c(O)cc2O)c1-c1ccc(CN2CCOCC2)cc1 [Luminespib] | 0.0128 | 0.0121 | > 1 | > 1 | 21.4 | 22 | 0 | 0
COc1cc(NS(C)(=O)=O)ccc1Nc1c2ccccc2nc2ccccc12 [Amsacrine] | 1.22 | 2.4 | > 10 | > 10 | 6.2 | 4.4 | 0 | 0.7
COc1cc2nccc(Oc3ccc(NC(=O)NC4CC4)c(Cl)c3)c2cc1C(N)=O [Lenvatinib] | > 2.5 | > 2.5 | > 2.5 | > 2.5 | 0 | 0.1 | 0 | 0
COc1cc(C)[nH]c(=O)c1CNC(=O)c1c(C)n([C@H](C)C2CCOCC2)c2ccccc12 [CPI-360] | 0.198 | > 10 | > 10 | > 10 | 7.4 | 0 | 0 | 0
Cc1ccc(C(=O)Nc2ccc(Oc3cc4cnn(C)c4cc3-c3cn[nH]c3)c(F)c2)c(=O)n1-c1ccc(F)cc1 [Merestinib] | 0.0986 | 0.207 | > 1 | > 1 | 7.9 | 4.2 | 0 | 0
C[C@H]1Oc2cc(cnc2N)-c2c(nn(C)c2C#N)CN(C)C(=O)c2ccc(F)cc21 | > 1 | > 1 | > 1 | > 1 | 1.6 | 0 | 0 | 0
CC1=C(/C=C/C(C)=C/C=C/C(C)=C/C(=O)O)C(C)(C)CCC1 [Tretinoin] | 0.0965 | 0.001 | > 10 | > 10 | 12.1 | 17.7 | 0 | 0
CCCS(=O)(=O)Nc1ccc(F)c(C(=O)c2c[nH]c3ncc(-c4ccc(Cl)cc4)cc23)c1F [Vemurafenib] | > 10 | > 10 | > 10 | > 10 | 0 | 0.2 | 0 | 0
Nc1ncnc2c1nc(N)n2[C@@H]1O[C@H](CO)[C@@H](O)[C@H]1O [8-amino-adenosine] | 1.5 | 1.07 | 5.2 | 4.71 | 18.2 | 20 | 11.2 | 11.8
COc1cc(OC)cc(N(CCNC(C)C)c2ccc3ncc(-c4cnn(C)c4)nc3c2)c1 [Erdafitinib] | 0.133 | 0.0421 | > 1 | > 1 | 6 | 5.9 | 0 | 0
CCN(CC)CCNC(=O)c1c(C)[nH]c(/C=C2\C(=O)Nc3ccc(F)cc32)c1C [Sunitinib] | 0.229 | 0.381 | > 1 | > 1 | 2.8 | 1.9 | 0 | 0
CC(=O)[C@]1(O)Cc2c(O)c3c(c(O)c2[C@@H](O[C@H]2C[C@H](N)[C@H](O)[C@H](C)O2)C1)C(=O)c1ccccc1C3=O [Idarubicin] | 0.0969 | 0.0452 | 0.219 | 0.15 | 10 | 14.2 | 2.4 | 4.8
C=CC(=O)N1CCC(Oc2cc3c(Nc4ccc(Cl)c(Cl)c4F)ncnc3cc2OC)CC1 [Poziotinib] | 0.258 | 0.203 | > 1 | > 1 | 2.7 | 3.6 | 0 | 0
COCCOc1cnc2ccn([C@H](C)c3nnc4c(F)cc(-c5cnn(C)c5)cn34)c(=O)c2c1 [AMG-337] | 0.27 | 0.543 | > 10 | > 10 | 6.6 | 4.2 | 0 | 0
COC(=O)c1ccc([C@H]2c3[nH]c4ccccc4c3C[C@H](C(=O)OC)N2C(=O)CCl)cc1 [RSL3] | 0.0174 | > 10 | > 10 | > 10 | 9 | 6.6 | 0 | 0
CC(=O)c1cc2c(o1)C(=O)c1ccccc1C2=O [Napabucasin] | 0.21 | 0.361 | 0.465 | 0.617 | 23.9 | 21 | 19.6 | 16.1
Cc1ccc(F)c(NC(=O)Nc2ccc(-c3cccc4[nH]nc(N)c34)cc2)c1 [Linifanib] | > 1 | > 1 | > 1 | > 1 | 1.1 | 0.5 | 0 | 0
O=C(/C=C/c1cccnc1)NCCCCC1CCN(C(=O)c2ccccc2)CC1 [Daporinad] | 0.0049 | 0.004 | > 1 | > 1 | 25.9 | 27.6 | 0 | 0
CN[C@@H](C)C(=O)N[C@H](C(=O)N1CCC[C@H]1c1nc(C(=O)c2ccc(F)cc2)cs1)C1CCCCC1 [NVP-LCL161] | 2.36 | > 25 | > 25 | > 25 | 4.8 | 2.1 | 0 | 0
CNC(=O)c1ccc(-c2cnc3ncc(Cc4ccc5ncccc5c4)n3n2)cc1F [Capmatinib] | > 1 | > 1 | > 1 | > 1 | 0 | 0 | 0 | 0
C[C@@H]1CN(C(=O)c2ccc(NC(=O)c3cc(O[C@H](C)c4c(Cl)ccc(F)c4Cl)c(N)nn3)cc2)C[C@H](C)N1 [Ensartinib] | > 1 | > 1 | > 1 | > 1 | 0.1 | 0 | 0.2 | 0.3

Further lines, with some results ahead:

EC50 viability (DLD1 NRF2-GOF [3]) [µM] | EC50 viability (DLD1 NRF2-WT [4]) [µM] | Structure (SMILES) | TC50 cytotoxicity (DLD1 NRF2-GOF [1]) [µM] | TC50 cytotoxicity (DLD1 NRF2-WT [2]) [µM] | drug sensitivity score (DLD1 NRF2-GOF [5]) | drug sensitivity score (DLD1 NRF2-WT [6]) | drug sensitivity score (DLD1 NRF2-GOF [7]) | drug sensitivity score (DLD1 NRF2-WT [8])
> 1 | > 1 | O=C(Nc1ccc(OC(F)(F)Cl)cc1)c1cnc(N2CC[C@@H](O)C2)c(-c2cc[nH]n2)c1 [NVP-ABL001] | > 1 | > 1 | 2.3 | 0.1 | 0 | 0
> 1 | > 1 | CN1CCC(COc2cnc(-c3cccc(Cn4nc(-c5cccc(C#N)c5)ccc4=O)c3)nc2)CC1 [Tepotinib] | > 1 | > 1 | 0 | 0 | 0 | 0
3.69 | 2.44 | C=CC(=O)Nc1cccc(Nc2nc(Nc3ccc(N4CCN(C(C)=O)CC4)cc3OC)ncc2C(F)(F)F)c1 [Rociletinib] | > 10 | 3.15 | 3.1 | 5.3 | 0.7 | 1.5
1.48 | 1.22 | COc1cc(Nc2c(C#N)cnc3cc(OCCCN4CCN(C)CC4)c(OC)cc23)c(Cl)cc1Cl [Bosutinib] | 3.43 | 3.5 | 9.3 | 10 | 3.1 | 3.8
0.253 | 0.148 | CCNc1nc(Nc2cc(F)c(C(=O)N3CCOCC3)cc2OC)ncc1C(F)(F)F [GNE-7915] | > 1 | > 1 | 2.9 | 3.3 | 0 | 0
> 1 | > 1 | CCN1CCN(c2ccc(Nc3cc(N(C)C(=O)Nc4c(Cl)c(OC)cc(OC)c4Cl)ncn3)cc2)CC1 [NVP-BGJ398] | > 1 | > 1 | 0 | 0 | 0 | 0
> 1 | > 1 | C=CC(=O)N1CCC[C@@H](n2nc(-c3ccc(Oc4ccccc4)cc3)c3c(N)ncnc32)C1 [Ibrutinib] | > 1 | > 1 | 0 | 0.1 | 0 | 0
1.44 | 1.02 | Cc1ncc(-c2ccnc(Nc3ccc(S(C)(=O)=O)cc3)n2)n1C(C)C [AZD-5438] | > 10 | > 10 | 8.7 | 10.8 | 1.9 | 0.5
0.675 | 0.371 | CNC(=O)c1cccc(-c2ccc3c(N4CCOC[C@@H]4C)nc(N4CCOC[C@@H]4C)nc3n2)c1 [Vistusertib] | > 10 | > 10 | 9.9 | 11.9 | 0 | 0
0.143 | 0.353 | C=CCn1c(=O)c2cnc(Nc3ccc(N4CCN(C)CC4)cc3)nc2n1-c1cccc(C(C)(C)O)n1 [AZD1775] | 0.171 | 1 | 16.9 | 14.5 | 6.1 | 5.7
0.163 | > 1 | Cc1cccc(-c2nn3c(c2-c2ccnc4ccc(C(N)=O)cc24)CCC3)n1 [Galunisertib] | > 1 | > 1 | 2.6 | 1.6 | 0 | 0
0.134 | 0.0266 | CCN1CCN(Cc2ccc(Nc3ncc(F)c(-c4cc(F)c5nc(C)n(C(C)C)c5c4)n3)nc2)CC1 [Abemaciclib] | > 2.5 | > 2.5 | 6.6 | 11.5 | 0 | 0
0.279 | 0.252 | C[C@@]1(C(=O)Nc2ccc(F)nc2)CCCN1c1nc(Nc2cc(C3CC3)n[nH]2)c2cccn2n1 | 0.319 | 0.326 | 14.8 | 13 | 11 | 6.3
